Laboratory results reported in PMC8946662, “Topical Bimiralisib Shows Meaningful Cutaneous Drug Levels in Healthy Volunteers and Mycosis Fungoides Patients but No Clinical Activity in a First-in-Human, Randomized Controlled Trial” (Cancers, 2022).
“And” between values parts separate entries of the source, which are not always exact repeats. Equal values may be shown once. “Also recorded” adds a separate entry of the source. Read-outs that look alike come from different tables or passages of the source.

Key:
CTCL cell lines = settings: cited from earlier work
CTCL patients = tested on: CTCL patients; parameters: method as in PMID 29233821; settings: oral, 19 CTCL patients; cited from earlier work
[1] = Systemic pharmacokinetics in plasma of early-stage MF patients (UPLC-MS/MS), part B; type: in vivo, human
Method: (§1) The healthy volunteers in part A were administered 2 mg/cm^2 topical bimiralisib 2% on 400 cm^2 and 2 mg/cm^2 vehicle gel (serving as placebo with identical appearance) on 100 cm^2 skin of the back once daily by the study physician for 21 consecutive days, all administered at the study site. The 19 patients in part B were randomized 1:1, with 9 assigned to active and 10 to placebo. Randomization was predefined and performed in SAS version 9.4 (SAS Institute, Cary, NC, USA) by an independent statistician, using the SAS code for the parallel, two-treatment randomization with block size 2. The investigators, study personnel, sponsor and patients were blinded for allocated treatment throughout the study. Patients randomized in the treatment group applied topical bimiralisib 2%, once daily for 42 consecutive days, whereas the control group applied the vehicle gel. During the treatment period, the patients applied the bimiralisib or vehicle themselves at home after training and instructions on day 1. After 42 days, patients with ≥15% lesion improvement by CAILS could enter a blinded extension period in which treatment was continued until day 84.
(§2) At baseline of part B, one to three MF lesions (target lesions) were chosen to define a 150–200 cm^2 treatment area. Other MF lesions were left untreated in this study. Emollients, i.e., unguentum leniens, were distributed to patients and allowed for daily use on the skin, barring the target lesion(s). In part B, patient visits to the study site were scheduled for days −42 (run-in period), 1, 14, 28, 42 (end of treatment for all patients with <15% lesion improvement), 56 and 70 (end of study). Patients continuing with the extended treatment period had three extra visits on days 84 (end of treatment), 98 and 112 (end of study). Study details are provided in the assessment schedule (Table 1, Part B).
(§3) Blood samples for determination of bimiralisib levels in plasma of HVs were collected predose and at 1, 3, 6 and 24 h on days 7, 14 and 21 of application in part A. In part B, PK blood samples from patients were collected predose and at 1, 2, 3 and 6 h after dosing on day 42 (or on day 84 in case of participation in the extension study) of topical application.
(§4) Pharmacokinetics in plasma were analyzed with a validated ultra-performance liquid chromatography–tandem mass spectrometer method (UPLC-MS/MS) with a lower limit of quantification of 1.00 ng/mL of plasma.
(§5) Pharmacokinetic data were visualized for each subject and part separately. Due to differences in surface areas and applied doses between part A and part B, pharmacokinetic data were normalized to allow for the exploration of differences in exposure between HVs and patients after log transformation. For exploratory purposes, the applied dose was stratified by part and by number of lesions. The average concentration (Cavg) per subject was calculated based on all pharmacokinetic data of an individual combined.

healthy volunteers = assay: Safety and tolerability in healthy volunteers, part A; type: in vivo, human
Method: as §1
(§6) The secondary endpoint was to characterize local tolerability, safety and systemic exposure of bimiralisib by application site assessment using the Local Irritation Grading Scale (LIGS), adverse events (AEs), safety measurements and systemic pharmacokinetics.
(§7) The LIGS, a composite score of erythema, edema and desquamation, was used to assess the application site for safety or tolerability issues. In addition, safety and tolerability were evaluated by monitoring of AEs, physical examinations, vital signs, 12-lead ECGs and laboratory tests.

[2] = Systemic pharmacokinetics in plasma of healthy volunteers (UPLC-MS/MS), part A; type: in vivo, human; settings: for AUC(0-t): topical, 2 mg/cm^2, HVs
Method: as §1, §3, §4, §5

[3] = Cutaneous pharmacokinetics in skin punch biopsies of MF patients (MALDI-MSI); type: in vivo, human; settings: for concentration at 6 h: human, skin punch biopsy, topical, 2 % gel, MF patients
Method: (§8) To investigate cutaneous pharmacokinetics in both HVs and patients, 3 mm skin punch biopsies of the treatment area were taken 6 h after the last topical application (day 21 in part A and day 42/84 in part B, respectively) and snap-frozen within 5 min after collection. Skin punch biopsies were shipped to ImaBiotech (MS Imaging Department, Lille, France) and analyzed using matrix-assisted laser desorption/ionization mass spectrometry imaging (MALDI-MSI) to spatially visualize pharmacokinetics of bimiralisib throughout the biopsy (Figure 1).
(§9) Figure 1 Method of obtaining cutaneous pharmacokinetics of bimiralisib in HVs and early-stage MF patients. (A) Bimiralisib gel 2% is applied topically, in part A at the back of six HVs and in part B at 1–3 target MF lesions. (B) A full-thickness skin punch biopsy was taken on day 21 and day 42/84, respectively, for HVs and MF patients. Skin punch biopsy was snap-frozen within 5 min, processed and cryosectioned. A single section was used for H&E staining. (C) MALDI matrix spraying. (D) Prepared samples were ionized by a laser beam. (E) Seven tesla Matrix-assisted laser desorption/ionization Fourier transform ion cyclotron resonance mass spectrometry imaging (7T-MALDI-FTICR MSI) acquisition. (F) Acquired data are analyzed and MALDI images are acquired.
(§10) Pharmacokinetics in tissue were analyzed with a validated 7T-MALDI-FTICR method with a lower limit of quantification of 62 ng/g of tissue and an assay sensitivity of […] (lower limit of detection). Pharmacokinetic data below the lower limit of quantification but above the limit of detection were interpolated and used in the analysis.

[4] = parameters: method as in earlier work; settings: plasma; cited from earlier work
[5] = tested on: early-stage MF target lesions; assay: Clinical efficacy and pharmacodynamics in early-stage MF patients (CAILS, LSCI, OCT, multispectral imaging); type: in vivo, human
Method: as §1, §2
The primary endpoint was to evaluate the efficacy of bimiralisib versus placebo after 6 weeks of treatment by the change from baseline on Composite Assessment of Index Lesion Severity (CAILS). Clinical efficacy was assessed by the CAILS per target lesion, which is a score derived from individual scores for erythema, desquamation, plaque elevation, hypo- or hyperpigmentation and lesion size. Change from baseline of the combined CAILS score for all target lesions was used to calculate the objective response rate (ORR), i.e., the number of patients with complete response (CR: 100% clearance of target lesions from baseline) and partial response (PR: 50%–99% clearance) divided by the total number of patients in the respective treatment arm. […] Target lesions were extensively characterized by the assessment of skin perfusion with laser speckle contrast imaging (LSCI, PeriCam PSI NR system, Perimed, Sweden); skin morphology (blood flow) by optical coherence tomography (OCT, VivoSight, Michelson Diagnostics, UK); and erythema, roughness and edema by a multispectral camera (Antera 3D, Miravez, Ireland). The Scarlet Red app (ScarletRed Vision, Vienna, Austria) was used by patients at home for daily photo documentation and erythema quantification of a single target lesion.
All safety and statistical calculations were conducted with SAS version 9.4 for Windows (SAS Institute, Cary, NC, USA). PK parameter calculations were conducted with R version 4.0.3 for Windows (R Foundation for Statistical Computing, Vienna, Austria). All efficacy endpoints were analyzed for both the per protocol set and full analysis set, using a mixed model analysis of covariance (ANCOVA) with treatment, time and interaction of treatment by time as fixed factors; baseline as covariate; and subject as random factor.

[6] = Cutaneous pharmacokinetics in skin punch biopsies of healthy volunteers (MALDI-MSI); type: in vivo, human; settings: for Kp at 6 h / concentration at 6 h: human, topical; for Kp at 6 h: skin / plasma, 2 mg/cm^2, HVs; for concentration at 6 h: 2 mg/cm^2, HVs, day 21, 6 h after last application
Method: as §8, §9, §10

MF patients = assay: Safety and tolerability in MF patients, part B; type: in vivo, human
Method: as §1, §6, §7

CO[C@H]1C[C@@H]2CC[C@@H](C)[C@@](O)(O2)C(=O)C(=O)N2CCCC[C@H]2C(=O)O[C@H]([C@H](C)C[C@@H]2CC[C@@H](OCCO)[C@H](OC)C2)CC(=O)[C@H](C)/C=C(\C)[C@@H](O)[C@@H](OC)C(=O)[C@H](C)C[C@H](C)/C=C/C=C/C=C/1C [everolimus]
antitumor activity in vitro (CTCL cell lines): has antitumor activity in vitro

C[C@H](Nc1ncnc2nc[nH]c12)c1cc2cccc(Cl)c2c(=O)n1-c1ccccc1 [duvelisib]
complete responders by mSWAT (CTCL patients): 3
partial responders by mSWAT (CTCL patients): 6

Nc1cc(C(F)(F)F)c(-c2nc(N3CCOCC3)nc(N3CCOCC3)n2)cn1 [bimiralisib, 5-(4,6-Dimorpholino-1,3,5-triazin-2-yl)-4-(trifluoromethyl)pyridin-2-amine]
highest plasma concentration reached ([1]; MF patients): 18.70 ng/mL
mean Cavg in plasma ([1]; MF patients, gel 2% once daily, day 42 or 84): 4.49 ng/mL
plasma concentrations relative to NOAEL ([1]; MF patients, NOAEL 96.6 ng/mL): substantially below
mean ratio of normalized plasma concentration, MF patients vs HVs ([1]; normalized around 200 cm^2/(2 mg/cm^2)): 2.44 fold
increase in normalized plasma concentration, MF patients compared to HVs ([1]; normalized for applied dose and area): 144%
acne at the application site, subjects (healthy volunteers; bimiralisib area, n = 3): 50%
LIGS scores, bimiralisib vs placebo areas (healthy volunteers; full course): comparable
subjects with one or more adverse events (healthy volunteers; n = 6, each subject received both bimiralisib and placebo areas): 100%
dryness at the application site, subjects (healthy volunteers; reported for both placebo- and bimiralisib-treated areas): 83.3%
mean Cavg in plasma ([2]; HVs, 2 mg/cm^2 gel 2% on 400 cm^2 once daily for 21 days): 0.96 ng/mL and 0.956 ng/mL
time at which steady state is reached ([2]; HVs, topical gel once daily): < 7 days
plasma concentrations relative to human NOAEL ([2]; HVs, NOAEL 96.6 ng/mL): detectable but low and substantially below
Cmax ([2]; human, plasma, 2 mg/cm^2, HVs, topical once daily, read-out: highest Cmax in plasma): 2.74 ng/mL
AUC(0-t) ([2]; human, plasma, after 14 days of once-daily gel, read-out: highest AUC(0-24h)): 40 ng·h/mL
AUC(0-t) ([2]; human, plasma, day 7, read-out: mean AUC(0-24 h)): 21.3 ng·h/mL
AUC(0-t) ([2]; human, plasma, day 14, read-out: mean AUC(0-24 h)): 22.2 ng·h/mL
exposure in papillary dermis, lower than in epidermis ([3]; Figure 5, single HV and single MF patient, MALDI-MSI): approximately 10 fold
concentration at 6 h ([3]; day 42/84, 6 h after last application, read-out: mean cutaneous concentration in skin punch biopsies): 5300 ng/g
concentration at 6 h ([3]; day 42/84, read-out: cutaneous concentration in skin punch biopsies, range): 300 to 30200 ng/g
human no observed adverse effect level (NOAEL Cmax) [4]: 96.6 ng/mL
efficacy by CAILS vs placebo, in words ([5]; 42 days once-daily treatment, p = 0.74 over time, p = 0.98 on day 42): No statistical significant difference; also recorded: no statistically significant clinical response
objective response rates between treatment groups ([5]; Table S7): No substantial differences
subjects with ≥15% lesional response by CAILS ([5]; bimiralisib group (n = 9), day 42): Three
clinical response classification ([5]; bimiralisib group, by CAILS): stable disease
difference in change from baseline in CAILS, bimiralisib vs placebo ([5]; day 42, once daily, 95% CI −3.3–3.4, p = 0.9820): 0.0
skin perfusion (LSCI), blood flow (OCT), erythema and roughness by 3D multispectral imaging ([5]; target lesions): no improvement
Kp at 6 h ([6]; read-out: mean ratio skin/plasma concentration): 3050
Kp at 6 h ([6]; read-out: ratio skin/plasma concentration, range): 1210 to 7360
concentration at 6 h ([6]; skin punch biopsy (epidermis), epidermis, read-out: mean concentration in skin punch biopsies): 2540 ng/g
concentration at 6 h ([6]; skin punch biopsy, read-out: concentration in skin punch biopsies, range): 1030 to 5700 ng/g
exposure in papillary and reticular dermis, lower than in epidermis ([6]; part A skin punch biopsies): approximately 10 fold
local exposure in epidermis relative to IC90 of pAKT and pS6 ([6]; part A skin punch biopsies, IC90 from ref 31, 32): within range of the IC90 of pAKT and pS6
vital signs, laboratory analyses, ECG, urinalysis (MF patients; both parts): did not result in any clinically significant changes
overall tolerability (MF patients; local reactions and systemic adverse events, HVs and MF patients): safe and well tolerated
myalgia, patients (MF patients; part B, bimiralisib group, 2/9): 22.2%
mild dryness at the application site, patients (MF patients; part B, bimiralisib group, day 14): 1/9
well-defined erythema at the application site, patients (MF patients; part B, bimiralisib group, day 28): one
patients with at least one AE (MF patients; part B, bimiralisib group, six of nine patients): 66.7%
